Experimental data from the kinase profiling compilation of Christmann-Franck et al. (2016).

Key:
Experiment in all cases: KINOMEscan competition binding
Details in all cases: compound 10.0 µM
MAPK14 (human) = MAPK14 (human) (UniProt Q16539)
ULK2 (human) = ULK2 (human) (UniProt Q8IYT8)
LIMK2 (human) = LIMK2 (human) (UniProt P53671)
ERBB2 (human) = ERBB2 (human) (UniProt P04626)
MST4 (human) = MST4 (human) (UniProt Q9P289)
FRK (human) = FRK (human) (UniProt P42685)
SRMS (human) = SRMS (human) (UniProt Q9H3Y6)
TLK2 (human) = TLK2 (human) (UniProt Q86UE8)
AURKB (human) = AURKB (human) (UniProt Q96GD4)
AURKB (human), sequence (Q96GD4 whole entry, looked up): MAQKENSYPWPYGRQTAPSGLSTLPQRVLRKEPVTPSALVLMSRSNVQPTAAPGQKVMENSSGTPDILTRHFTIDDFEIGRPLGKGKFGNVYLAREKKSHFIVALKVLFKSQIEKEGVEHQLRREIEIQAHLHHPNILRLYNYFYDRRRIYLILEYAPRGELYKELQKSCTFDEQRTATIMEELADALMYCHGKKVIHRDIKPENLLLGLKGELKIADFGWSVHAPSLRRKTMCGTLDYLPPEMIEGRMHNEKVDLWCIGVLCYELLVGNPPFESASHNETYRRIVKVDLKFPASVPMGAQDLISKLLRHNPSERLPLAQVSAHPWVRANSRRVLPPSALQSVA

ADCK3 (human) = ADCK3 (human) (UniProt Q8NI60)
ACVR2A (human) = ACVR2A (human) (UniProt P27037)
FGR (human) = FGR (human) (UniProt P09769)
FGR (human), sequence (P09769 whole entry, looked up): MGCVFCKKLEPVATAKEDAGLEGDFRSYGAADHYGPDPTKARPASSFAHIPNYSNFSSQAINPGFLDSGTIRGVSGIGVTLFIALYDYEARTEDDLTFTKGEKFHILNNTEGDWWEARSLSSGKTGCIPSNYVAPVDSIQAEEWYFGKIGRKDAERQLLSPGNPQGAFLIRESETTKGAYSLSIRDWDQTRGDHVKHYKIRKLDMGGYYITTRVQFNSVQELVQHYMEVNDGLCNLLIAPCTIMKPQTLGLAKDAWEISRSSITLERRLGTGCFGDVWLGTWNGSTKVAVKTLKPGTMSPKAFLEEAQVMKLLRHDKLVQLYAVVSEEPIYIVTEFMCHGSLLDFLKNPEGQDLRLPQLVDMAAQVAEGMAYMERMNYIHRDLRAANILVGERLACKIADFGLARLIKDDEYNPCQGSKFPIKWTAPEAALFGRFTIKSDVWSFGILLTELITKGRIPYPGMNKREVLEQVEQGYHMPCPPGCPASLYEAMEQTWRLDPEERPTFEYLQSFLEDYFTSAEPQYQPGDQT

SRPK3 (human) = SRPK3 (human) (UniProt Q9UPE1)
MAPK1 (human) = MAPK1 (human) (UniProt P28482)
MAPK1 (human), sequence (P28482 whole entry, looked up): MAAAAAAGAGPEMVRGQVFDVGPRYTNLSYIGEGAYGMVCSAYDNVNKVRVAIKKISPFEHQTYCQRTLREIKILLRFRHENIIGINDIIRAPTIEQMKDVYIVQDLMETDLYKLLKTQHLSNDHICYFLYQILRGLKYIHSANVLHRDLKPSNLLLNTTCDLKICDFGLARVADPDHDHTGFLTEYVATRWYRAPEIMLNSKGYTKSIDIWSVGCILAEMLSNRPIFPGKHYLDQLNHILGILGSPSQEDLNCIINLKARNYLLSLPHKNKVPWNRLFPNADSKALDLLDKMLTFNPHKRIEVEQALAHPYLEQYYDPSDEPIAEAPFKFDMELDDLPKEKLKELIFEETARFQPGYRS

DAPK2 (human) = DAPK2 (human) (UniProt Q9UIK4)
RET (human) = RET (human) (UniProt P07949)
RET (human), sequence (P07949 whole entry, looked up): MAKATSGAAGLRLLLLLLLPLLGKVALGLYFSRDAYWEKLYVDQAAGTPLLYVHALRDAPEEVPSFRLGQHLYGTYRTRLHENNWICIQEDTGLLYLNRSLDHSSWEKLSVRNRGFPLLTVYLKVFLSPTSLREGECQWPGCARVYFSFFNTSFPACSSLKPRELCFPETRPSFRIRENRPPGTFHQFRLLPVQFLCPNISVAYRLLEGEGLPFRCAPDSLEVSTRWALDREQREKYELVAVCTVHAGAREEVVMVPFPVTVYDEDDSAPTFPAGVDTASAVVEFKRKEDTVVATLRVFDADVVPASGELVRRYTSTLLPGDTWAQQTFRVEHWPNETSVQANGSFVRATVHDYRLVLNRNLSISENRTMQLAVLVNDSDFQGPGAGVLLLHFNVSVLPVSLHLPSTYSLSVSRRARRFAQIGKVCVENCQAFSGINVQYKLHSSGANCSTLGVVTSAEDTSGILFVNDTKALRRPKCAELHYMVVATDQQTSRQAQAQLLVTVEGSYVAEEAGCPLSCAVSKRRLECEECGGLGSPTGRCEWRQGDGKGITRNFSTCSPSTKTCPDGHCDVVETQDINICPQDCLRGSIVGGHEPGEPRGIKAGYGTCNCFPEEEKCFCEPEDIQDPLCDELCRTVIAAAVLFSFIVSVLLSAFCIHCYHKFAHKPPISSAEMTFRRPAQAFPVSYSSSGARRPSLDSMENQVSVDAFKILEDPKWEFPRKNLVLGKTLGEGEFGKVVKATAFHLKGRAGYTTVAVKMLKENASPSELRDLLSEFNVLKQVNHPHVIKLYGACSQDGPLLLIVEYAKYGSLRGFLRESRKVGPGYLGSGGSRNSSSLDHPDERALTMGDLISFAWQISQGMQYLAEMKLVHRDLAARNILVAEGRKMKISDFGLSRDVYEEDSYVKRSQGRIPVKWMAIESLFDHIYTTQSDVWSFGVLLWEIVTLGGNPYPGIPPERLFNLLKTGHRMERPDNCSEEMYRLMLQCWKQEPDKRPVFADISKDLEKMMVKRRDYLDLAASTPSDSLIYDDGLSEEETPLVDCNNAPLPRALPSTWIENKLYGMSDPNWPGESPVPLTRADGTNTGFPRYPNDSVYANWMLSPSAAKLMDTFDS

ERBB4 (human) = ERBB4 (human) (UniProt Q15303)
CDC2L2 (human) = CDC2L2 (human) (UniProt Q9UQ88)
HIPK1 (human) = HIPK1 (human) (UniProt Q86Z02)
HIPK1 (human), sequence (Q86Z02 whole entry, looked up): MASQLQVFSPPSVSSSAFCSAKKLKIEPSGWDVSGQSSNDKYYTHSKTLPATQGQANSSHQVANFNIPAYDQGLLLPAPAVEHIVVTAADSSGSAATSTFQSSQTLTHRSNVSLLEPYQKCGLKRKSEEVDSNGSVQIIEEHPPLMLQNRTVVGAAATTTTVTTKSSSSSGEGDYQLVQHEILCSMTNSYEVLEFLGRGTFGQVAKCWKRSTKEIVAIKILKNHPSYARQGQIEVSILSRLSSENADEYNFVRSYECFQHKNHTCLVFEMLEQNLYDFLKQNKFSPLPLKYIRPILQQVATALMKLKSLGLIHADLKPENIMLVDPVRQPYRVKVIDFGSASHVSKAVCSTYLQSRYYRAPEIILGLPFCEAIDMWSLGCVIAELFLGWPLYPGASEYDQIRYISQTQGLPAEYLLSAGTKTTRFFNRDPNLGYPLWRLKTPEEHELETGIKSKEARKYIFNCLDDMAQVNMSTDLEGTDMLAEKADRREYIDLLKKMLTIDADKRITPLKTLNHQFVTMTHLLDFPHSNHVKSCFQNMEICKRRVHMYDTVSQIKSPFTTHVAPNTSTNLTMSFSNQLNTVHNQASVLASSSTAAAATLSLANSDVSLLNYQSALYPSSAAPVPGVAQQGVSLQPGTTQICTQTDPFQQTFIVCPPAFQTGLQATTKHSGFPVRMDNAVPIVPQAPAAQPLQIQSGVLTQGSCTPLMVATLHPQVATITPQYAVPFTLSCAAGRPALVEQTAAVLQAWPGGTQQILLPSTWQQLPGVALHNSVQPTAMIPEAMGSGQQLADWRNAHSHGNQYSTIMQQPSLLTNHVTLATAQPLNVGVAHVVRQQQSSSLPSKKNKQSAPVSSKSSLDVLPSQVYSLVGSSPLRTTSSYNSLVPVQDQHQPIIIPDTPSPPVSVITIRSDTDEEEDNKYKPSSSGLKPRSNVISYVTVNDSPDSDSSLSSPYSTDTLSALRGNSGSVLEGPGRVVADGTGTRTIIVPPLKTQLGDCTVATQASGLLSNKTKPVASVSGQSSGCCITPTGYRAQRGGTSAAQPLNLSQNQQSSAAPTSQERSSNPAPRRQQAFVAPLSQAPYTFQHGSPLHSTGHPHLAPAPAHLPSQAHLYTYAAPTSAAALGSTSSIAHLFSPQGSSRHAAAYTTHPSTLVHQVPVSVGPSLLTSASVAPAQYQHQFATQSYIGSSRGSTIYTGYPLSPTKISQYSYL

DYRK1B (human) = DYRK1B (human) (UniProt Q9Y463)
MAPKAPK5 (human) = MAPKAPK5 (human) (UniProt Q8IW41)
RPS6KA6 KD2 (human) = RPS6KA6 KD2 (human) (UniProt Q9UK32)
PIK3CD (human) = PIK3CD (human) (UniProt O00329)
AKT2 (human) = AKT2 (human) (UniProt P31751)
MAP3K5 (human) = MAP3K5 (human) (UniProt Q99683)
PRKD1 (human) = PRKD1 (human) (UniProt Q15139)
MAPK15 (human) = MAPK15 (human) (UniProt Q8TD08)
MAPK15 (human), sequence (Q8TD08 whole entry, looked up): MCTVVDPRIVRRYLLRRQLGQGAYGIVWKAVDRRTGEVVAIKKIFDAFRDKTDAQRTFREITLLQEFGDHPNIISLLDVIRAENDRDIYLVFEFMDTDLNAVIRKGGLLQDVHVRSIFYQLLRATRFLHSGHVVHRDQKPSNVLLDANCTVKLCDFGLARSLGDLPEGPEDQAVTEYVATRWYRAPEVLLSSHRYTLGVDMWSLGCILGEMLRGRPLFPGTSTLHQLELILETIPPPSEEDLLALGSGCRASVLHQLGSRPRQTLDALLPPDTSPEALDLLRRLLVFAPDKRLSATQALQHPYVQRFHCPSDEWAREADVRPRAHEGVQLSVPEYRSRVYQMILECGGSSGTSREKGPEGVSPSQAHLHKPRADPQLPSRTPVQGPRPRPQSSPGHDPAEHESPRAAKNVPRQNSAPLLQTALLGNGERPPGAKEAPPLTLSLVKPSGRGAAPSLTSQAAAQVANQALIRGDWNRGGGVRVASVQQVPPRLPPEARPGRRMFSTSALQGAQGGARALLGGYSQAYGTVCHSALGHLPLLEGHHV

LATS1 (human) = LATS1 (human) (UniProt O95835)
PHKG1 (human) = PHKG1 (human) (UniProt Q16816)
RPS6KA6 KD1 (human) = RPS6KA6 KD1 (human) (UniProt Q9UK32)
CDK3 (human) = CDK3 (human) (UniProt Q00526)
PKN2 (human) = PKN2 (human) (UniProt Q16513)
DDR2 (human) = DDR2 (human) (UniProt Q16832)
CAMK2B (human) = CAMK2B (human) (UniProt Q13554)
ULK3 (human) = ULK3 (human) (UniProt Q6PHR2)
CLK2 (human) = CLK2 (human) (UniProt P49760)
TGFBR1 (human) = TGFBR1 (human) (UniProt P36897)
PRKG1 (human) = PRKG1 (human) (UniProt Q13976)
FGFR3 (human) = FGFR3 (human) (UniProt P22607)
CDC42BPB (human) = CDC42BPB (human) (UniProt Q9Y5S2)

MST4 (human), sequence (Q9P289 whole entry, looked up): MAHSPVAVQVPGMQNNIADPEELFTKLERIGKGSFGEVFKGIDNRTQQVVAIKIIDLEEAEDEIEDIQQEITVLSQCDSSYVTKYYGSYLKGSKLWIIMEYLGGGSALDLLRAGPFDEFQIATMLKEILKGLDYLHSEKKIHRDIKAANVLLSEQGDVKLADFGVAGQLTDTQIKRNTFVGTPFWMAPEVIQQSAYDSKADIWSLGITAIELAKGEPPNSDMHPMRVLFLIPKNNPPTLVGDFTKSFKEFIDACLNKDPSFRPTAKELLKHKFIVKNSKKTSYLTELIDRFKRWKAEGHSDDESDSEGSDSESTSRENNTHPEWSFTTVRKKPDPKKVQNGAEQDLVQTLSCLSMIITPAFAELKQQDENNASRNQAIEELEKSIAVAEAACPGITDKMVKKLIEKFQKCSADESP
FRK (human), sequence (P42685 whole entry, looked up): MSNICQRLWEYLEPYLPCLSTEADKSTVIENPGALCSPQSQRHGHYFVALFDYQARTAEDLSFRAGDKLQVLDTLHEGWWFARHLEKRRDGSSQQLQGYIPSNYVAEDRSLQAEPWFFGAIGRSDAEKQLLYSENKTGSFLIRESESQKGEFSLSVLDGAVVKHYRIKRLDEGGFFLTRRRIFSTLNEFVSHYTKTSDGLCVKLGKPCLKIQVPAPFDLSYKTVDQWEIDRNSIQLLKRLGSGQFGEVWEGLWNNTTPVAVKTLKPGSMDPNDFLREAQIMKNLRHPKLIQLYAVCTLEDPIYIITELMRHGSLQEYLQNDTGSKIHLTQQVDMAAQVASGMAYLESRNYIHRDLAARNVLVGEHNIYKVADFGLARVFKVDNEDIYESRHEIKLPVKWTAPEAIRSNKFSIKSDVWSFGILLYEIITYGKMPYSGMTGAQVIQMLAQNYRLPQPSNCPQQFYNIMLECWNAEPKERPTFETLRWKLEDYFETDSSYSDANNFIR

| Compound | kinase still bound, per cent of control (MAPK14 (human)) [%] | kinase still bound, per cent of control (ULK2 (human)) [%] | kinase still bound, per cent of control (LIMK2 (human)) [%] | kinase still bound, per cent of control (ERBB2 (human)) [%] | kinase still bound, per cent of control (MST4 (human)) [%] | kinase still bound, per cent of control (FRK (human)) [%] | kinase still bound, per cent of control (SRMS (human)) [%] | kinase still bound, per cent of control (TLK2 (human)) [%] | kinase still bound, per cent of control (AURKB (human)) [%] | kinase still bound, per cent of control (ADCK3 (human)) [%] | kinase still bound, per cent of control (ACVR2A (human)) [%] | kinase still bound, per cent of control (FGR (human)) [%] | kinase still bound, per cent of control (SRPK3 (human)) [%] | kinase still bound, per cent of control (MAPK1 (human)) [%] | kinase still bound, per cent of control (DAPK2 (human)) [%] | kinase still bound, per cent of control (RET (human)) [%] | kinase still bound, per cent of control (ERBB4 (human)) [%] | kinase still bound, per cent of control (CDC2L2 (human)) [%] | kinase still bound, per cent of control (HIPK1 (human)) [%] | kinase still bound, per cent of control (DYRK1B (human)) [%] | also measured |
| --- | --- | --- | --- | --- | --- | --- | --- | --- | --- | --- | --- | --- | --- | --- | --- | --- | --- | --- | --- | --- | --- |
| C=CC(=O)Nc1cccc(Oc2nc(Nc3ccc(N4CCN(C)CC4)cc3OC)ncc2Cl)c1 | 100 | 2 | 100 | 1.8 | 100 | 28 | 100 | 100 | 20 | 100 | 100 | 100 | 8.4 | 100 | 28 | 100 | 0.25 | 100 | 100 | 17 | kinase still bound, per cent of control (MAPKAPK5 (human)): 100%; kinase still bound, per cent of control (RPS6KA6 KD2 (human)): 27%; kinase still bound, per cent of control (PIK3CD (human)): 100%; kinase still bound, per cent of control (AKT2 (human)): 100%; kinase still bound, per cent of control (MAP3K5 (human)): 100%; kinase still bound, per cent of control (PRKD1 (human)): 12%; kinase still bound, per cent of control (MAPK15 (human)): 100%; kinase still bound, per cent of control (LATS1 (human)): 100%; kinase still bound, per cent of control (PHKG1 (human)): 7.7%; kinase still bound, per cent of control (RPS6KA6 KD1 (human)): 100%; kinase still bound, per cent of control (CDK3 (human)): 100%; kinase still bound, per cent of control (PKN2 (human)): 100%; kinase still bound, per cent of control (DDR2 (human)): 100%; kinase still bound, per cent of control (CAMK2B (human)): 100%; kinase still bound, per cent of control (ULK3 (human)): 12%; kinase still bound, per cent of control (CLK2 (human)): 100%; kinase still bound, per cent of control (TGFBR1 (human)): 100%; kinase still bound, per cent of control (PRKG1 (human)): 100%; kinase still bound, per cent of control (FGFR3 (human)): 100%; kinase still bound, per cent of control (CDC42BPB (human)): 100% |
| COc1cc(C(=O)NC2CCN(C)CC2)ccc1Nc1ncc2c(n1)N(C1CCCC1)C(C)CC(=O)N2C (stereo not given) | 100 | 100 | 100 | 100 | 100 | 100 | 100 | 100 | 100 | 100 | 100 | 100 | 100 | 100 | 100 | 100 | 100 | 100 | 100 | 100 | kinase still bound, per cent of control (MAPKAPK5 (human)): 100%; kinase still bound, per cent of control (RPS6KA6 KD2 (human)): 12%; kinase still bound, per cent of control (PIK3CD (human)): 100%; kinase still bound, per cent of control (AKT2 (human)): 100%; kinase still bound, per cent of control (MAP3K5 (human)): 100%; kinase still bound, per cent of control (PRKD1 (human)): 100%; kinase still bound, per cent of control (MAPK15 (human)): 100%; kinase still bound, per cent of control (LATS1 (human)): 100%; kinase still bound, per cent of control (PHKG1 (human)): 100%; kinase still bound, per cent of control (RPS6KA6 KD1 (human)): 100%; kinase still bound, per cent of control (CDK3 (human)): 100%; kinase still bound, per cent of control (PKN2 (human)): 100%; kinase still bound, per cent of control (DDR2 (human)): 100%; kinase still bound, per cent of control (CAMK2B (human)): 100%; kinase still bound, per cent of control (ULK3 (human)): 100%; kinase still bound, per cent of control (CLK2 (human)): 6.2%; kinase still bound, per cent of control (TGFBR1 (human)): 100%; kinase still bound, per cent of control (PRKG1 (human)): 100%; kinase still bound, per cent of control (FGFR3 (human)): 100%; kinase still bound, per cent of control (CDC42BPB (human)): 100% |
